Tests used:
mice = test system: mice; parameters: method as in McGovren et al, 1984; conditions: ref McGovren et al, 1984; cited from earlier work
rabbits = test system: rabbits; parameters: method as in McGovren et al, 1984; conditions: ref McGovren et al, 1984; cited from earlier work
patients = test system: patients; parameters: method as in Sessa et al, 1994; conditions: day 1 q 4 weeks schedule; ref Sessa et al, 1994; cited from earlier work
[1] = Plasma pharmacokinetics of Carzelesin and metabolites by HPLC, first course; assay type: in vivo, human; conditions: for mean concentration of metabolite: highest dose level 300 of Carzelesin
Experimental: Carzelesin is a cyclopropylpyrroloindole analogue which acts as a DNA-sequence-specific alkylating agent. In this phase I study, Carzelesin was given as a 4-weekly 10 min IV infusion to 51 patients with advanced solid tumours. Patients received a median of two courses (range 1–5) at one of nine dose levels: 24, 48, 96, 130, 150, 170, 210, 250 and 300 μg m^−2. According to NCI-CTC criteria, non-haematological toxicities (grade 1/2) included fever, nausea and vomiting, mucositis and anorexia, none of which was clearly dose related. The dose-limiting toxicity was haematological and consisted mainly of neutropenia and to a lesser extent thrombocytopenia. From the dose level 150 μg m^−2, the haematological toxicity (particularly thrombocytopenia) was delayed in onset, prolonged and cumulative in some patients. In several courses, double WBC nadirs occurred. The maximum tolerated dose for a single course was 300 μg m^−2. From the dose level 170 μg m^−2, the intended dose intensity could not be delivered to most patients receiving > 2 courses owing to cumulative haematological toxicity. The dose level with the best dose intensity for multiple courses was 150 μg m^−2. The pharmacokinetics of Carzelesin and its metabolites (U-76,073; U-76,074) have been established in 31 patients during the first course of treatment using a HPLC method. […] The concentration of U-76,074 (active metabolite) extended above the lower limit of quantitation (1 ng ml^−1) for short periods of time and only at the higher dose levels. There was no relationship between neutropenia and the AUC of the prodrug Carzelesin, but the presence of detectable plasma levels of the active metabolite U-76,074 was usually associated with a substantial decrease in ANC values. © 1999 Cancer Research Campaign
Carzelesin (U-80,244, Figure 1A) is a cyclopropylpyrroloindole (CPI) prodrug analogue of CC-1065. […] CPI drugs are a class of compounds with unique DNA interactive properties. These agents fit into the minor groove region of DNA, and the CPI function in the molecule mediates a covalent binding to the N3 position of adenine in A-T rich regions, thus forming DNA adducts in a sequence selective fashion (Hurley et al, 1984; Reynolds et al, 1985). Three new CPIs have now been developed. […] Bizelesin differs from the classical CPI drugs in that it contains two chloromethyl functions, which are both converted (via intramolecular rearrangements) to the CPI alkyl- ating species that interact with DNA. Consequently, this agent is capable of forming DNA interstrand cross-links (Lee et al, 1991). […] Therefore, efforts were directed to modu- late the alkylation rate by the preparation of CPI prodrugs that would require chemical or enzymatic conversion. The activation of Carzelesin is a two-step reaction with hydrolysis of the phenyl- urethane substituent to form the intermediate compound U-76,073, followed by ring closure to form the active product U-76,074 (Figure 1B). […] This higher efficacy may be related to the pharmacologic features of the compound. […] Phase I study of Carzelesin (U-80,244) given (4-weekly) by intravenous bolus schedule A Awada1, CJA Punt2, MJ Piccart1, O Van Tellingen3, L Van Manen2, J Kerger1, Y Groot4, J Wanders4, J Verweij5 and DJTh Wagener2 1Institut Jules Bordet, Bd de Waterloo 125, 1000 Brussels, Belgium; 2University Hospital, Geert Grooteplein 8, Box 9101, 6500 HB Nijmegen, The Netherlands; 3The Netherlands Cancer Institute (Antoni van Leeuwenhoek Huis), Plesmanlaan 121, 1066 CX Amsterdam, The Netherlands; 4European Organization for Research and Treatment of Cancer - New Drug Development Office, PO Box 7057, Amsterdam, The Netherlands; 5Rotterdam Cancer Institute, Groene Hilledijk 301, 3075 EA Rotterdam, The Netherlands; on behalf of the EORTC Early Clinical Studies Group and EORTC NDDO Summary Carzelesin is a cyclopropylpyrroloindole analogue which acts as a DNA-sequence-specific alkylating agent. […]

[2] = test system: granulocytes (ANC), white blood cells (WBC), platelets; assay: Pharmacokinetic-pharmacodynamic relationship of bone marrow toxicity (%decr vs AUC); assay type: in vivo; conditions: plasma level of U-76,074 above 1 ng ml-1
Excerpt: Carzelesin (U-80,244, Figure 1A) is a cyclopropylpyrroloindole (CPI) prodrug analogue of CC-1065. […] CPI drugs are a class of compounds with unique DNA interactive properties. These agents fit into the minor groove region of DNA, and the CPI function in the molecule mediates a covalent binding to the N3 position of adenine in A-T rich regions, thus forming DNA adducts in a sequence selective fashion (Hurley et al, 1984; Reynolds et al, 1985). Three new CPIs have now been developed. […] Bizelesin differs from the classical CPI drugs in that it contains two chloromethyl functions, which are both converted (via intramolecular rearrangements) to the CPI alkyl- ating species that interact with DNA. Consequently, this agent is capable of forming DNA interstrand cross-links (Lee et al, 1991). […] Therefore, efforts were directed to modu- late the alkylation rate by the preparation of CPI prodrugs that would require chemical or enzymatic conversion. The activation of Carzelesin is a two-step reaction with hydrolysis of the phenyl- urethane substituent to form the intermediate compound U-76,073, followed by ring closure to form the active product U-76,074 (Figure 1B). […] This higher efficacy may be related to the pharmacologic features of the compound. […] Phase I study of Carzelesin (U-80,244) given (4-weekly) by intravenous bolus schedule A Awada1, CJA Punt2, MJ Piccart1, O Van Tellingen3, L Van Manen2, J Kerger1, Y Groot4, J Wanders4, J Verweij5 and DJTh Wagener2 1Institut Jules Bordet, Bd de Waterloo 125, 1000 Brussels, Belgium; 2University Hospital, Geert Grooteplein 8, Box 9101, 6500 HB Nijmegen, The Netherlands; 3The Netherlands Cancer Institute (Antoni van Leeuwenhoek Huis), Plesmanlaan 121, 1066 CX Amsterdam, The Netherlands; 4European Organization for Research and Treatment of Cancer - New Drug Development Office, PO Box 7057, Amsterdam, The Netherlands; 5Rotterdam Cancer Institute, Groene Hilledijk 301, 3075 EA Rotterdam, The Netherlands; on behalf of the EORTC Early Clinical Studies Group and EORTC NDDO Summary Carzelesin is a cyclopropylpyrroloindole analogue which acts as a DNA-sequence-specific alkylating agent. In this phase I study, Carzelesin was given as a 4-weekly 10 min IV infusion to 51 patients with advanced solid tumours. Patients received a median of two courses (range 1-5) at one of nine dose levels: […]. According to NCI-CTC criteria, non- haematological toxicities (grade 1/2) included fever, nausea and vomiting, mucositis and anorexia, none of which was clearly dose related. […] The concentration of U-76,074 (active metabolite) extended above the lower limit of quantitation (1 ng ml-1) for short periods of time and only at the higher dose levels. […]

Q: For `COc1c(O)c2c(c3cc(C(=O)N4CCc5c4c(O)c(OC)c4[nH]c(C(=O)N6CC7CC78C6=CC(=O)c6[nH]cc(C)c68)cc54)[nH]c13)CCN2C(N)=O` (centres unmarked) [CC-1065], which “toxicity at sub-therapeutic doses” value (mice) is on record?
A: delayed fatal toxicity

Q: And the “toxicity at sub-therapeutic doses” value (rabbits)?
A: delayed fatal toxicity

Q: With `Cn1cc(NC(=O)c2cc(NC(=O)c3cc(NC(=O)c4ccc(N(CCCl)CCCl)cc4)cn3C)cn2C)cc1C(=O)NCCC(=N)N` [Tallimustine] as the compound, how does the dose-limiting toxicity (patients) read?
A: brief neutropenia

Q: For `CCN(CC)c1ccc2cc(C(=O)Nc3ccc4[nH]c(C(=O)N5C[C@@H](CCl)c6c5cc(O)c5[nH]cc(C)c65)cc4c3)oc2c1` [U-76,073], which “mean concentration of metabolite” value [1] is on record?
A: 18 ng/mL

Q: For `CCN(CC)c1ccc2cc(C(=O)Nc3ccc4[nH]c(C(=O)N5C[C@H]6C[C@@]67C5=CC(=O)c5[nH]cc(C)c57)cc4c3)oc2c1` [U-76,074], which “decrease in ANC values associated with detectable plasma levels” value [2] is on record?
A: greater than 60%

Q: What about the “plasma level of active metabolite, for short periods of time in most patients” value ([1]; Carzelesin dose of 130 or higher) of the same compound?
A: exceeded 1 ng ml-1

Q: What about the “plasma concentration of active metabolite in the majority of patients” value ([1]; from the Carzelesin dose level 96) of the same compound?
A: 1 to 2 ng/mL

Q: And the “mean concentration of metabolite” value [1]?
A: 3 ng/mL
